Like-named read-outs stand apart in the source and are kept apart here.
What was measured:
[1] = Procedure: (§1) ^125I-ODV was prepared to a radioactive concentration of 30 MBq/mL by the addition of saline. For metabolite analysis in CYP-inhibited mice, we produced model mice with reduced CYP3A4 or CYP2D6 activity by selective inhibition using ketoconazole or paroxetine. CYP3A4-inhibited mice were injected intraperitoneally with 50 mg/kg of ketoconazole at 60 min before injection of ^125I-ODV, and CYP2D6-inhibited mice were injected intraperitoneally with 30 mg/kg of paroxetine at 60 min before injection of ^125I-ODV. Each of three mice was administered ^125I-ODV via the tail vein (3.0 MBq/100 µL/mouse). At 30 min, the three fasted mice were euthanized under isoflurane, and each gallbladder was collected. The radioactive products in bile were analyzed by TLC using methanol/acetate at a ratio of 100:1. Bile was directly spotted onto a TLC plate.
CYP2D6 = settings: CYP2D6-inhibited mice (paroxetine 30 mg/kg i.p. 60 min before), i.v.
Procedure: as §1
(§2) To examine the biological distribution in CYP-inhibited mice, we produced model mice in the same way as for the analysis of metabolism in bile. At 5, 15, 30, and 60 min after ^125I-ODV injection, mice were euthanized under isoflurane (n = 4), and the same tissues were collected and quantified.

CYP3A4 = settings: CYP3A4-inhibited mice (ketoconazole 50 mg/kg i.p. 60 min before), i.v.
Procedure: as §1, §2

[2] = up to seven days at 4 °C
Procedure: The stability of ^125I-ODV was analyzed by TLC. The elution of ^125I-ODVwas spotted onto a silica gel TLC plate 60 F254 (Merck, Darmstadt, Germany). The TLC plate and the TLC spots were developed using methanol/acetate at a ratio of 100:1. After development and complete drying, the TLC plates were cut into 21 fractions, and the radiography associated with each fraction was quantified using a γ-ray counter (AccuFLEXγ 7000, Aloka, Tokyo, Japan). The fractional ratios of ^125I^− and ^125I-ODV were calculated by dividing the radioactive counts for each fraction by the total radioactivity count.

[3] = normal and CYP-inhibited mice, TLC of bile

## CN(C)CC(c1ccc(O)c([125I])c1)C1(O)CCCCC1 (centres unmarked) [^125I-ODV, iodine-125-labeled O-desmethylvenlafaxine]
[1]; gallbladders collected 60 min after injection
  metabolites of 125I-ODV present in bile: more than 99%
[1]; [3]
  fraction of 125I-ODV in bile: not found
  fractional ratio of the metabolite in bile: more than 99%
CYP2D6; 5 min
  Biological distribution, Blood: 1.83 %ID/g
  Biological distribution, Brain: 0.79 %ID/g
  Biological distribution, Gallbladder: 1.59 %ID/g
  Biological distribution, Heart: 5.19 %ID/g
  Biological distribution, Kidney: 19.94 %ID/g
  Biological distribution, Large intestines: 1.12 %ID/organ
  Biological distribution, Liver: 7.19 %ID/g
  Biological distribution, Lung: 22.13 %ID/g
  Biological distribution, Pancreas: 6.02 %ID/g
  Biological distribution, Small intestines: 7.24 %ID/organ
  Biological distribution, Spleen: 4.62 %ID/g
  Biological distribution, Stomach: 1.77 %ID/organ
  Biological distribution, Thyroid: 0.05 %ID/organ
  Biological distribution, Urine: 0.33 %ID/organ
CYP2D6; 15 min
  Biological distribution, Blood: 1.59 %ID/g
  Biological distribution, Brain: 0.82 %ID/g
  Biological distribution, Gallbladder: 10.66 %ID/g
  Biological distribution, Heart: 2.87 %ID/g
  Biological distribution, Kidney: 17.13 %ID/g
  Biological distribution, Large intestines: 0.93 %ID/organ
  Biological distribution, Liver: 5.56 %ID/g
  Biological distribution, Lung: 11.96 %ID/g
  Biological distribution, Pancreas: 5.71 %ID/g
  Biological distribution, Small intestines: 5.64 %ID/organ
  Biological distribution, Spleen: 4.97 %ID/g
  Biological distribution, Stomach: 2.40 %ID/organ
  Biological distribution, Thyroid: 0.04 %ID/organ
  Biological distribution, Urine: 6.18 %ID/organ
CYP2D6; 30 min
  Biological distribution, Blood: 1.12 %ID/g
  Biological distribution, Brain: 0.71 %ID/g
  Biological distribution, Gallbladder: 21.66 %ID/g
  Biological distribution, Heart: 1.47 %ID/g
  Biological distribution, Kidney: 15.90 %ID/g
  Biological distribution, Large intestines: 0.74 %ID/organ
  Biological distribution, Liver: 5.08 %ID/g
  Biological distribution, Lung: 7.77 %ID/g
  Biological distribution, Pancreas: 3.94 %ID/g
  Biological distribution, Small intestines: 10.30 %ID/organ
  Biological distribution, Spleen: 2.88 %ID/g
  Biological distribution, Stomach: 3.20 %ID/organ
  Biological distribution, Thyroid: 0.05 %ID/organ
  Biological distribution, Urine: 22.96 %ID/organ
CYP2D6; 60 min
  Biological distribution, Blood: 0.67 %ID/g
  Biological distribution, Brain: 0.58 %ID/g
  Biological distribution, Gallbladder: 26.70 %ID/g
  Biological distribution, Heart: 0.62 %ID/g
  Biological distribution, Kidney: 8.33 %ID/g
  Biological distribution, Large intestines: 0.67 %ID/organ
  Biological distribution, Liver: 1.75 %ID/g
  Biological distribution, Lung: 3.15 %ID/g
  Biological distribution, Pancreas: 2.51 %ID/g
  Biological distribution, Small intestines: 10.85 %ID/organ
  Biological distribution, Spleen: 1.46 %ID/g
  Biological distribution, Stomach: 2.20 %ID/organ
  Biological distribution, Thyroid: 0.10 %ID/organ
  Biological distribution, Urine: 33.92 %ID/organ
CYP3A4; 5 min
  Biological distribution, Blood: 1.91 %ID/g
  Biological distribution, Brain: 0.71 %ID/g
  Biological distribution, Gallbladder: 2.39 %ID/g
  Biological distribution, Heart: 5.73 %ID/g
  Biological distribution, Kidney: 21.72 %ID/g
  Biological distribution, Large intestines: 1.19 %ID/organ
  Biological distribution, Liver: 5.66 %ID/g
  Biological distribution, Lung: 29.72 %ID/g
  Biological distribution, Pancreas: 8.93 %ID/g
  Biological distribution, Small intestines: 6.06 %ID/organ
  Biological distribution, Spleen: 6.61 %ID/g
  Biological distribution, Stomach: 2.37 %ID/organ
  Biological distribution, Thyroid: 0.05 %ID/organ
  Biological distribution, Urine: 2.10 %ID/organ
CYP3A4; 15 min
  Biological distribution, Blood: 1.71 %ID/g
  Biological distribution, Brain: 0.80 %ID/g
  Biological distribution, Gallbladder: 5.43 %ID/g
  Biological distribution, Heart: 3.93 %ID/g
  Biological distribution, Kidney: 19.74 %ID/g
  Biological distribution, Large intestines: 1.00 %ID/organ
  Biological distribution, Liver: 4.72 %ID/g
  Biological distribution, Lung: 21.72 %ID/g
  Biological distribution, Pancreas: 5.94 %ID/g
  Biological distribution, Small intestines: 6.37 %ID/organ
  Biological distribution, Spleen: 6.35 %ID/g
  Biological distribution, Stomach: 2.34 %ID/organ
  Biological distribution, Thyroid: 0.05 %ID/organ
  Biological distribution, Urine: 5.25 %ID/organ
CYP3A4; 30 min
  Biological distribution, Blood: 1.44 %ID/g
  Biological distribution, Brain: 0.74 %ID/g
  Biological distribution, Gallbladder: 9.16 %ID/g
  Biological distribution, Heart: 2.34 %ID/g
  Biological distribution, Kidney: 15.65 %ID/g
  Biological distribution, Large intestines: 1.00 %ID/organ
  Biological distribution, Liver: 5.03 %ID/g
  Biological distribution, Lung: 11.31 %ID/g
  Biological distribution, Pancreas: 23.69 %ID/g
  Biological distribution, Small intestines: 7.71 %ID/organ
  Biological distribution, Spleen: 4.03 %ID/g
  Biological distribution, Stomach: 2.24 %ID/organ
  Biological distribution, Thyroid: 0.09 %ID/organ
  Biological distribution, Urine: 5.63 %ID/organ
CYP3A4; 60 min
  Biological distribution, Blood: 0.65 %ID/g
  Biological distribution, Brain: 0.52 %ID/g
  Biological distribution, Gallbladder: 20.14 %ID/g
  Biological distribution, Heart: 0.96 %ID/g
  Biological distribution, Kidney: 9.60 %ID/g
  Biological distribution, Large intestines: 0.68 %ID/organ
  Biological distribution, Liver: 2.12 %ID/g
  Biological distribution, Lung: 5.81 %ID/g
  Biological distribution, Pancreas: 2.77 %ID/g
  Biological distribution, Small intestines: 10.07 %ID/organ
  Biological distribution, Spleen: 1.94 %ID/g
  Biological distribution, Stomach: 1.90 %ID/organ
  Biological distribution, Thyroid: 0.11 %ID/organ
  Biological distribution, Urine: 2.01 %ID/organ
[2]
  radiochemical purity: more than 98%
